Reference: ChEMBL document CHEMBL1136691, “Identification of novel and potent isoquinoline aminooxazole-based IMPDH inhibitors” (Bioorg Med Chem Lett, 2003)

Target: Inosine-5'-monophosphate dehydrogenase 2 (Homo sapiens, UniProt P12268)
Test: Inhibitory activity against inosine […] monophosphate dehydrogenase type II (IMPDH II)

Going from Cc1cccc(NC(=O)Nc2ccc3nnccc3c2)c1 to Cc1cccc(NC(=O)Nc2ccc3cnccc3c2)c1, the IC50 falls from over 1700 nM to 18 nM.

Going from C=Cc1c(N)ccc2cnccc12 to C=CCc1c(N)ccc2cnccc12, the IC50 rises from 820 nM to 3000 nM (3.7-fold).

Compared with O=C(Nc1ccccc1)Nc1ccc2cnccc2c1Br, O=C(Nc1ccccc1)Nc1ccc2cnccc2c1Cl is 2.2-fold higher in IC50: 740 nM for the first, 1660 nM for the second.

Compared with COc1ccc2cnccc2c1Br, Nc1ccc2cnccc2c1Br is lower in IC50: over 5000 nM for the first, 550 nM for the second.

Compared with Cc1cccc(NC(=O)Nc2ccc3cncnc3c2)c1, Cc1cccc(NC(=O)Nc2ccc3cnncc3c2)c1 is higher in IC50: 150 nM for the first, over 5000 nM for the second. The first is the more potent here.

Compared with Cc1ccccc1NC(=O)Nc1ccc2cnccc2c1, O=C(Nc1ccccc1)Nc1ccc2cnccc2c1 is 5.1-fold lower in IC50: 3800 nM for the first, 740 nM for the second. The second is the more potent here.

Nc1ccc2cnccc2c1N and Cc1c(N)ccc2cnccc12 cannot be ordered by IC50: over 5000 nM for the first, over 5000 nM for the second.

First: c1ccc(-c2cnc(Nc3ccc4cnccc4c3)o2)cc1
Second: c1ccc(-c2cnc(Nc3ccc4cncnc4c3)o2)cc1
The IC50 of the first is 12-fold lower: 5 nM for the first, 60 nM for the second.

CC(=O)Nc1ccc2cnccc2c1Cl and CC(=O)Nc1ccc2cnccc2c1Br cannot be ordered by IC50: over 5000 nM for the first, over 5000 nM for the second.

Compared with O=C(Nc1ccccc1)Nc1ccc2ccncc2c1, O=C(NCc1ccccc1)Nc1ccc2cnccc2c1 is lower in IC50: over 5000 nM for the first, 400 nM for the second.

First: CC(=O)Nc1ccc2cnccc2c1
Second: Cc1ccc(NC(=O)Nc2ccc3cnccc3c2)cc1
The IC50 of the first is higher: over 5000 nM for the first, 247 nM for the second. The second is the more potent here.

Going from CCCc1c(N)ccc2cnccc12 to Nc1ccc2cnccc2c1Cl, the IC50 falls from over 5000 nM to 1200 nM.

With Nc1ccc2cnccc2c1 the IC50 was over 5000 nM.
